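Following 48 hours of exposure in 96-well plates, responses at five concentrations were used to interpolate endpoints linearly. At the GI50, growth is halved.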 Calls of active or inactive are those of the source. No stated cut-off is given here; in the data, active = GI50 up to about 1.1 µM and inactive = higher.
How the values were obtained:
Experiment in all cases: inhibition of tumour cell growth, NCI panel, 48 h
MDA-MB-435 = test system: MDA-MB-435
T47D = test system: T47D
RPMI-8226 = test system: RPMI-8226
SNB-19 = test system: SNB-19
RXF 393 = test system: RXF 393
SNB-75 = test system: SNB-75
DU-145 = test system: DU-145
Malme-3M = test system: Malme-3M
NCI-H522 = test system: NCI-H522
TK-10 = test system: TK-10
NCI-H226 = test system: NCI-H226
OVCAR-8 = test system: OVCAR-8
CAKI-1 = test system: CAKI-1
MDA-MB-231 = test system: MDA-MB-231
SN12C = test system: SN12C
OVCAR-4 = test system: OVCAR-4
NCI-H460 = test system: NCI-H460
HL-60 = test system: HL-60
MDA-N = test system: MDA-N
SK-MEL-28 = test system: SK-MEL-28
CCRF-CEM = test system: CCRF-CEM
786-0 = test system: 786-0
HCT-116 = test system: HCT-116
ACHN = test system: ACHN
UO-31 = test system: UO-31
UACC-257 = test system: UACC-257
U-251 = test system: U-251
IGROV-1 = test system: IGROV-1
SR = test system: SR
BT-549 = test system: BT-549
SF-268 = test system: SF-268
HOP-92 = test system: HOP-92
UACC-62 = test system: UACC-62
HCT-15 = test system: HCT-15
A549 = test system: A549
HCC 2998 = test system: HCC 2998
SK-MEL-2 = test system: SK-MEL-2
NCI/ADR-RES = test system: NCI/ADR-RES
MOLT-4 = test system: MOLT-4
KM12 = test system: KM12
M14 = test system: M14
Hs-578T = test system: Hs-578T
LOX IMVI = test system: LOX IMVI
K562 = test system: K562
EKVX = test system: EKVX
OVCAR-5 = test system: OVCAR-5
NCI-H23 = test system: NCI-H23
SW-620 = test system: SW-620
MCF7 = test system: MCF7
SF-539 = test system: SF-539
A498 = test system: A498
PC-3 = test system: PC-3
HT-29 = test system: HT-29
SK-MEL-5 = test system: SK-MEL-5
COLO 205 = test system: COLO 205
OVCAR-3 = test system: OVCAR-3
SF-295 = test system: SF-295
SK-OV-3 = test system: SK-OV-3
HOP-62 = test system: HOP-62

Q: With NNc1nc2ccccc2s1 as the compound, how does the GI50 (MDA-MB-435) read?
A: > 100 µM (inactive)

Q: What about the GI50 (T47D) of the same compound?
A: 55.2 µM (inactive)

Q: And the GI50 (RPMI-8226)?
A: 72.8 µM (inactive)

Q: And the GI50 (SNB-19)?
A: > 100 µM (inactive)

Q: And the GI50 (RXF 393)?
A: > 100 µM (inactive)

Q: And the GI50 (SNB-75)?
A: > 100 µM (inactive)

Q: And the GI50 (DU-145)?
A: > 100 µM (inactive)

Q: And the GI50 (Malme-3M)?
A: > 100 µM (inactive)

Q: What about the GI50 (NCI-H522) of the same compound?
A: > 100 µM (inactive)

Q: What about the GI50 (TK-10) of the same compound?
A: > 100 µM (inactive)

Q: And the GI50 (NCI-H226)?
A: > 100 µM (inactive)

Q: And the GI50 (OVCAR-8)?
A: > 100 µM (inactive)

Q: What about the GI50 (CAKI-1) of the same compound?
A: > 100 µM (inactive)

Q: What about the GI50 (MDA-MB-231) of the same compound?
A: > 100 µM (inactive)

Q: And the GI50 (SN12C)?
A: > 100 µM (inactive)

Q: What about the GI50 (OVCAR-4) of the same compound?
A: > 100 µM (inactive)

Q: And the GI50 (NCI-H460)?
A: > 100 µM (inactive)

Q: What about the GI50 (HL-60) of the same compound?
A: > 100 µM (inactive)

Q: What about the GI50 (MDA-N) of the same compound?
A: > 100 µM (inactive)

Q: What about the GI50 (SK-MEL-28) of the same compound?
A: > 100 µM (inactive)

Q: What about the GI50 (CCRF-CEM) of the same compound?
A: 35.1 µM (inactive)

Q: What about the GI50 (786-0) of the same compound?
A: > 100 µM (inactive)

Q: What about the GI50 (HCT-116) of the same compound?
A: > 100 µM (inactive)

Q: What about the GI50 (ACHN) of the same compound?
A: > 100 µM (inactive)

Q: What about the GI50 (UO-31) of the same compound?
A: > 100 µM (inactive)

Q: What about the GI50 (UACC-257) of the same compound?
A: > 100 µM (inactive)

Q: And the GI50 (U-251)?
A: > 100 µM (inactive)

Q: What about the GI50 (IGROV-1) of the same compound?
A: > 100 µM (inactive)

Q: What about the GI50 (SR) of the same compound?
A: 53.2 µM (inactive)

Q: What about the GI50 (BT-549) of the same compound?
A: > 100 µM (inactive)

Q: What about the GI50 (SF-268) of the same compound?
A: > 100 µM (inactive)

Q: What about the GI50 (HOP-92) of the same compound?
A: > 100 µM (inactive)

Q: And the GI50 (UACC-62)?
A: > 100 µM (inactive)

Q: What about the GI50 (HCT-15) of the same compound?
A: > 100 µM

Q: What about the GI50 (A549) of the same compound?
A: > 100 µM (inactive)

Q: And the GI50 (HCC 2998)?
A: > 100 µM (inactive)

Q: What about the GI50 (SK-MEL-2) of the same compound?
A: > 100 µM (inactive)

Q: And the GI50 (NCI/ADR-RES)?
A: > 100 µM (inactive)

Q: What about the GI50 (MOLT-4) of the same compound?
A: 37.3 µM (inactive)

Q: What about the GI50 (KM12) of the same compound?
A: > 100 µM (inactive)

Q: What about the GI50 (M14) of the same compound?
A: > 100 µM (inactive)

Q: And the GI50 (Hs-578T)?
A: > 100 µM (inactive)

Q: And the GI50 (LOX IMVI)?
A: > 100 µM (inactive)

Q: What about the GI50 (K562) of the same compound?
A: > 100 µM (inactive)

Q: What about the GI50 (EKVX) of the same compound?
A: > 100 µM (inactive)

Q: What about the GI50 (OVCAR-5) of the same compound?
A: > 100 µM (inactive)

Q: And the GI50 (NCI-H23)?
A: > 100 µM (inactive)

Q: What about the GI50 (SW-620) of the same compound?
A: > 100 µM (inactive)

Q: What about the GI50 (MCF7) of the same compound?
A: > 100 µM (inactive)

Q: What about the GI50 (SF-539) of the same compound?
A: > 100 µM (inactive)

Q: And the GI50 (A498)?
A: > 100 µM (inactive)

Q: What about the GI50 (PC-3) of the same compound?
A: > 100 µM (inactive)

Q: What about the GI50 (HT-29) of the same compound?
A: > 100 µM (inactive)

Q: What about the GI50 (SK-MEL-5) of the same compound?
A: > 100 µM (inactive)

Q: What about the GI50 (COLO 205) of the same compound?
A: > 100 µM (inactive)

Q: For COc1ccc(C2=Nn3c(nc4sc(-c5ccccc5)cc4c3=O)SC2)cc1, which GI50 (OVCAR-3) is on record?
A: > 100 µM (inactive)

Q: What about the GI50 (MDA-MB-435) of the same compound?
A: > 100 µM (inactive)

Q: And the GI50 (T47D)?
A: > 100 µM (inactive)

Q: What about the GI50 (RPMI-8226) of the same compound?
A: > 100 µM (inactive)

Q: What about the GI50 (SF-295) of the same compound?
A: > 100 µM (inactive)

Q: And the GI50 (RXF 393)?
A: > 10 µM (inactive)

Q: And the GI50 (DU-145)?
A: > 100 µM (inactive)

Q: And the GI50 (Malme-3M)?
A: > 100 µM (inactive)

Q: And the GI50 (NCI-H522)?
A: > 100 µM (inactive)

Q: And the GI50 (TK-10)?
A: > 100 µM (inactive)

Q: What about the GI50 (NCI-H226) of the same compound?
A: > 100 µM (inactive)

Q: And the GI50 (OVCAR-8)?
A: > 100 µM (inactive)

Q: What about the GI50 (CAKI-1) of the same compound?
A: > 100 µM (inactive)

Q: And the GI50 (MDA-MB-231)?
A: > 100 µM (inactive)

Q: What about the GI50 (SN12C) of the same compound?
A: > 100 µM (inactive)

Q: What about the GI50 (NCI-H460) of the same compound?
A: 48.4 µM (inactive)

Q: And the GI50 (HL-60)?
A: > 100 µM (inactive)

Q: What about the GI50 (MDA-N) of the same compound?
A: 81.8 µM (inactive)

Q: What about the GI50 (SK-MEL-28) of the same compound?
A: > 100 µM (inactive)

Q: And the GI50 (CCRF-CEM)?
A: > 100 µM (inactive)

Q: And the GI50 (786-0)?
A: 36.9 µM (inactive)

Q: What about the GI50 (HCT-116) of the same compound?
A: 92.3 µM (inactive)

Q: What about the GI50 (SK-OV-3) of the same compound?
A: > 100 µM (inactive)

Q: What about the GI50 (ACHN) of the same compound?
A: 7.35 µM (inactive)

Q: What about the GI50 (UO-31) of the same compound?
A: > 100 µM (inactive)

Q: What about the GI50 (UACC-257) of the same compound?
A: > 100 µM (inactive)

Q: And the GI50 (U-251)?
A: > 100 µM (inactive)

Q: What about the GI50 (IGROV-1) of the same compound?
A: > 100 µM (inactive)

Q: And the GI50 (SR)?
A: > 100 µM (inactive)

Q: And the GI50 (BT-549)?
A: > 100 µM (inactive)

Q: And the GI50 (HOP-62)?
A: 54.8 µM (inactive)

Q: What about the GI50 (SF-268) of the same compound?
A: > 100 µM (inactive)

Q: What about the GI50 (HOP-92) of the same compound?
A: > 100 µM (inactive)

Q: And the GI50 (UACC-62)?
A: > 100 µM (inactive)

Q: And the GI50 (HCT-15)?
A: > 100 µM

Q: And the GI50 (A549)?
A: > 100 µM (inactive)

Q: And the GI50 (HCC 2998)?
A: > 100 µM (inactive)

Q: What about the GI50 (NCI/ADR-RES) of the same compound?
A: > 100 µM (inactive)

Q: And the GI50 (MOLT-4)?
A: > 100 µM (inactive)

Q: And the GI50 (KM12)?
A: 81.1 µM (inactive)

Q: What about the GI50 (Hs-578T) of the same compound?
A: 34.4 µM (inactive)

Q: And the GI50 (LOX IMVI)?
A: > 100 µM (inactive)

Q: And the GI50 (K562)?
A: > 10 µM (inactive)

Q: And the GI50 (EKVX)?
A: > 100 µM (inactive)

Q: And the GI50 (OVCAR-5)?
A: > 100 µM (inactive)

Q: What about the GI50 (NCI-H23) of the same compound?
A: > 100 µM (inactive)

Q: What about the GI50 (SW-620) of the same compound?
A: 37.3 µM (inactive)

Q: What about the GI50 (MCF7) of the same compound?
A: > 100 µM (inactive)

Q: And the GI50 (SF-539)?
A: > 100 µM (inactive)

Q: And the GI50 (A498)?
A: > 100 µM (inactive)

Q: And the GI50 (PC-3)?
A: > 100 µM (inactive)

Q: And the GI50 (HT-29)?
A: > 100 µM (inactive)

Q: And the GI50 (SK-MEL-5)?
A: > 100 µM (inactive)

Q: What about the GI50 (COLO 205) of the same compound?
A: > 100 µM (inactive)

Reference: ChEMBL document CHEMBL1201862, “PubChem BioAssay data set” (2004)
